Results taken from ChEMBL document CHEMBL1201862, “PubChem BioAssay data set” (2004).
Activity calls are given as the source filed them.

Tests used:
[1] = target: T1, Endoribonuclease toxin MazF (Escherichia coli K-12, UniProt P0AE70); assay: activation of MazEF endoribonuclease cleavage – biochemical, fluorescence, single-stranded RNA substrate, uHTS hits, dose response (AID 588481); format: functional
[2] = target: T1, Endoribonuclease toxin MazF; assay: substrate-only fluorescence increase artefacts – biochemical, single-stranded RNase substrate, counter-screen for MazEF activator project, dose response (AID 588502); format: functional
[3] = target: Luciferin 4-monooxygenase (Photinus pyralis, UniProt P08659); assay: inhibition of purified Photinus pyralis luciferase – biochemical, luminescence, dose response (AID 1891)
Sequence of Luciferin 4-monooxygenase (P08659 whole entry): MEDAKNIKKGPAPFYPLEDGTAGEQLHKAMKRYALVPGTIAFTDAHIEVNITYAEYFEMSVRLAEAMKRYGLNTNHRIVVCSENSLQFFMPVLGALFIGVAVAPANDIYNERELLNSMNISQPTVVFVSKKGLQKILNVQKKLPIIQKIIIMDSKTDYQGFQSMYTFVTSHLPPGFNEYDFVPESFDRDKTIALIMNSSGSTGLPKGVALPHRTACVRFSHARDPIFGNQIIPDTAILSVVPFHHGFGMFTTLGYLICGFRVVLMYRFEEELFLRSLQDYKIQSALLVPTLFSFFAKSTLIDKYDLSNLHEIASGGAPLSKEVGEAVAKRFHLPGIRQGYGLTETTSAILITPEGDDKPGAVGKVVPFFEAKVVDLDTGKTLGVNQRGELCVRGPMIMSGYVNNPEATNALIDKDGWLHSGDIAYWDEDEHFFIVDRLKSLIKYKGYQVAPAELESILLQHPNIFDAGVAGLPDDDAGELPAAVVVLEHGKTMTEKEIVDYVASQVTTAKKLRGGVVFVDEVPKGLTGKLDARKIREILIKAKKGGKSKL

[4] = Luminescence Cell-Based Dose Confirmation HTS to Identify Inhibitors of Platelet Dense Granule Release. [Related pubchem assays: 1663 (Primary HTS), 1678 (Summary of Project)]; format: functional
[5] = target: Cysteine protease ATG4B (Homo sapiens, UniProt Q9Y4P1); format: functional;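 further: Fluorescence-based dose-response confirmation assay measuring inhibition of ATG4B activity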
Sequence of Cysteine protease ATG4B (Q9Y4P1 whole entry): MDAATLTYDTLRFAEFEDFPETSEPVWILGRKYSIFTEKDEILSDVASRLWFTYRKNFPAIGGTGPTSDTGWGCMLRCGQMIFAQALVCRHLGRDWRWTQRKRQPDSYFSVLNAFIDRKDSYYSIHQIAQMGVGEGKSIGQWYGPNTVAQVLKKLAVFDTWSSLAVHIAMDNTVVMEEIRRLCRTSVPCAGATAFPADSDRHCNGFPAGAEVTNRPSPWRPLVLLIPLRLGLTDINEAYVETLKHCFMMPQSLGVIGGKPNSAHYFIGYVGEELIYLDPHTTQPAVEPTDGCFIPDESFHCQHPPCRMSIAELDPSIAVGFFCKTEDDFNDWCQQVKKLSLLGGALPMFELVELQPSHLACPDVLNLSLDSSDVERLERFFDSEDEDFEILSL

[6] = target: Phospholipase A2 (Homo sapiens, UniProt P04054); format: functional;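 further: confirmatory dose-response counterscreen on phospholipase A2, testing hits that came from an ultra-high-throughput screen for ATG4B inhibitors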
Sequence of Phospholipase A2 (P04054 whole entry): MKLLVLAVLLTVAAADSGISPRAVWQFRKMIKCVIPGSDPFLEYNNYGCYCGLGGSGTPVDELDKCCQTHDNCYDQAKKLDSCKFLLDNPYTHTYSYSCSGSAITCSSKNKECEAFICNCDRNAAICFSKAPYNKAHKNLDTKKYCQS

T1 sequence (P0AE70 whole entry): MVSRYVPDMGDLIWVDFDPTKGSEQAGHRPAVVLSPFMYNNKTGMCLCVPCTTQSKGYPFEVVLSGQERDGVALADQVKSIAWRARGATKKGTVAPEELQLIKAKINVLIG

SMILES	EC50 [1]	EC50 [2]	EC50 [3]	EC50 [4]	IC50 [5]	IC50 [6]
Cc1cc(C)c(NC(=O)Cn2nnc(C(=O)NCc3ccc4c(c3)OCO4)c2N)c(C)c1	> 99 µM (inactive)	> 99 µM (inactive)				
OC(CNCc1ccc(Cl)c(Cl)c1)c1ccccc1 (stereo unspecified)			> 112 µM (not active)	19 µM (active)	14.5 µM (active)	9.81 µM (active)
